Target: T1, hM5 (Homo sapiens, UniProt P08912)
T1 construct: expressed in transfected cells
T1 sequence (P08912 1-532): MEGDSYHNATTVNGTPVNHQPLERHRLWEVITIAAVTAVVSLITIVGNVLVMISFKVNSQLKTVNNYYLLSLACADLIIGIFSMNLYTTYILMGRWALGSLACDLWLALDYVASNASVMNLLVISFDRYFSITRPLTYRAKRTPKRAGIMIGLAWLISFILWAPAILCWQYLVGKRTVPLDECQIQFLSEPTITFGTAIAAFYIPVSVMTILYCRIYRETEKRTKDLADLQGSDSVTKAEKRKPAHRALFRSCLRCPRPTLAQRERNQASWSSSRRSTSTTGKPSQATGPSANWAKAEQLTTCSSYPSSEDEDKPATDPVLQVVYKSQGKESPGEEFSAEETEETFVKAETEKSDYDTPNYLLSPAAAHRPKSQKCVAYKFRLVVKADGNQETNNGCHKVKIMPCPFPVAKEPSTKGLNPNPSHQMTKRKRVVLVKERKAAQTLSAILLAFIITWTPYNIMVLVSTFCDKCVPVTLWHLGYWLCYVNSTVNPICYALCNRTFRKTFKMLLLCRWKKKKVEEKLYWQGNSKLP
Test: Calcium mobilization concentration-response (IC50 vs EC80 acetylcholine), CHO hM5
Type: cell-based
Conditions: CELL LINE hM5; vs EC80 acetylcholine; read-out: IC50
How it was run: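 IC50 values derive from percent maximal acetylcholine response after an EC80 ACh addition, measured as kinetic calcium fluorescence (static ratio, max−min). Test compounds were added 140 s before agonist. Cells: stable hM5-CHO in HEPES-buffered HBSS with 2.5 mM probenecid, pH 7.4; ≥3 independent triplicate determinations.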

Compared with Cn1ncc(S(=O)(=O)N2CCC(c3ccc4ncnn4c3)CC2)c1C#N [Compound 432, 4-((4-([1,2,4]triazolo[1,5-a]pyridin-6-yl)piperidin-1-yl)sulfonyl)-1-methyl-1H-pyrazole-5-carbonitrile], Cn1ncc(S(=O)(=O)N2CCC(c3ccc4ncnn4c3)CC2)c1CC#N [Compound 433, 2-(4-((4-([1,2,4]triazolo[1,5-a]pyridin-6-yl)piperidin-1-yl)sulfonyl)-1-methyl-1-pyrazol-5-yl)acetonitrile] is 3.9-fold higher in IC50: 777 nM for the first, 3020 nM for the second.

Going from Cc1cc2nccn2nc1N1CCN(S(=O)(=O)c2cnn(C)c2C)CC1 [Compound 434, 6-[4-(1,5-Dimethylpyrazol-4-yl)sulfonylpiperazin-1-yl]-7-methyl-imidazo[1,2-b]pyridazine] to Cc1cc2nccn2nc1N1CCN(S(=O)(=O)c2cnc(C)n2C)CC1 [Compound 436, 6-(4-((1,2-dimethyl-1H-imidazol-5-yl)sulfonyl)piperazin-1-yl)-7-methylimidazo[1,2-b]pyridazine], the IC50 rises from 43 nM to 113 nM (2.6-fold).

First: Cc1cc2nccn2nc1N1CCN(S(=O)(=O)c2cnn3c2CCC3)CC1 [Compound 435, 6-(4-((5,6-dihydro-4H-pyrrolo[1,2-b]pyrazol-3-yl)sulfonyl)piperazin-1-yl)-7-methylimidazo[1,2-b]pyridazine]
Second: Cc1cc2nccn2nc1N1CCN(S(=O)(=O)c2cnn3c2OCCC3)CC1 [Compound 437, 3-((4-(7-methylimidazo[1,2-b]pyridazin-6-yl)piperazin-1-yl)sulfonyl)-6,7-dihydro-5H-pyrazolo[5,1-b][1,3]oxazine]
The IC50 of the first is 2.7-fold lower: 22 nM for the first, 59 nM for the second.

Going from Cc1c(C2CCN(S(=O)(=O)c3cnn(C)c3C#N)CC2)cn2ncnc2c1F [Compound 438, 4-((4-(8-flooro-7-methyl-[1,2,4]triazolo[1,5-a]pyridin-6-yl)piperidin-1-yl)sulfonyl)-1-methyl-1H-pyrazole-5-carbonitrile] to Cc1c(C2CCN(S(=O)(=O)c3cnn(C)c3CC#N)CC2)cn2ncnc2c1F [Compound 439, 2-(4-((4-(8-fluoro-7-methyl-[1,2,4]triazolo[1,5-a]pyridin-6-yl)piperidin-1-yl)sulfonyl)-1-methyl-1H-pyrazol-5-yl)acetonitrile], the IC50 rises from 26 nM to 162 nM (6.2-fold). The first is the more potent here.

Going from [2H]C([2H])([2H])OCc1c(S(=O)(=O)N2CCC(c3cn4ncnc4cc3C)CC2)cnn1C [Compound 440, 6-(1-((5-((methoxy-d3)methyl)-1-methyl-1H-pyrazol-4-yl)sulfonyl)piperidin-4-yl)-7-methyl-[1,2,4]triazolo[1,5-a]pyridine] to [2H]C([2H])([2H])OCc1c(S(=O)(=O)N2CCC(c3cn4ncnc4cc3F)CC2)cnn1C [Compound 441, 7-fluoro-6-(1-((5-((methoxy-d3)methyl)-1-methyl-1H-pyrazol-4-yl)sulfonyl)piperidin-4-yl)-[1,2,4]triazolo[1,5-a]pyridine], the IC50 rises from 4960 nM to greater than 10000 nM.

Compared with Cc1cc2ncnn2cc1C1CCN(S(=O)(=O)c2cnn3cccnc23)CC1 [Compound 442, 7-methyl-6-(1-(pyrazolo[1,5-a]pyrimidin-3-ylsulfonyl)piperidin-4-yl)-[1,2,4]triazolo[1,5-a]pyridine], O=S(=O)(c1cnn2cccnc12)N1CCC(c2cn3ncnc3cc2F)CC1 [Compound 443, 7-fluoro-6-(1-(pyrazolo[1,5-a]pyrimidin-3-ylsulfonyl)piperidin-4-yl)-[1,2,4]triazolo[1,5-a]pyridine] is higher in IC50: 175 nM for the first, greater than 10000 nM for the second.

First: Cc1cc2ncccc2cc1C1CCN(S(=O)(=O)c2cnn3c2CCC3)CC1 [Compound 444, 6-(1-((5,6-dihydro-pyrrolo[1,2-b]pyrazol-3-yl)sulfonyl)piperidin-4-yl)-7-methylquinoline]
Second: Cc1cc2ncccc2cc1C1CCN(S(=O)(=O)c2cnn3c2OCCC3)CC1 [Compound 446, 3-((4-(7-methylquinolin-6-yl)piperidin-1-yl)sulfonyl)-6,7-dihydro-5H-pyrazolo[5,1-b][1,3]oxazine]
The IC50 of the first is 1.9-fold lower: 15 nM for the first, 28 nM for the second. The first is the more potent here.

Cc1cc2ncccc2cc1C1CCN(S(=O)(=O)c2c(C)nn(C)c2C(F)(F)F)CC1 [Compound 445, 6(1-((1,3-dimethyl-5-(trifluoromethyl)-1H-pyrazol-4-yl)sulfonyl)piperidin-4-yl)-7-methylquinoline] and Cc1ncc(S(=O)(=O)N2CCC(c3cc4cccnc4cc3C)CC2)s1 [Compound 449, 2-methyl-5-((4-(7-methylquinolin-6-yl)piperidin-1-yl)sulfonyl)thiazole] are within 1.5-fold of each other in IC50: 1950 nM for the first, 2360 nM for the second.

Compared with Cc1cc2ncccc2cc1C1CCN(S(=O)(=O)c2c(Cl)nn3ccccc23)CC1 [Compound 447, 6-(1-((2-chloropyrazolo[1,5-a]pyridin-3-yl)sulfonyl)piperidin-4-yl)-7-methylquinoline], Cc1cc2ncccc2cc1C1CCN(S(=O)(=O)c2cnc3ccccn23)CC1 [Compound 452, 6-(1-(imidazo[1,2-a]pyridin-3-ylsulfonyl)piperidin-4-yl)-7-methylquinoline] is 3.1-fold lower in IC50: 1360 nM for the first, 445 nM for the second. The second is the more potent here.

First: Cc1cc2ncccc2cc1C1CCN(S(=O)(=O)c2cnn3cccnc23)CC1 [Compound 448, 7-methyl-6-(1-(pyrazolo[1,5-a]pyrimidin-3-ylsulfonyl)piperidin-4-yl)quinoline]
Second: Cc1cc2ncccc2cc1C1CCN(S(=O)(=O)c2c(Cl)nc3sccn23)CC1 [Compound 451, 6-chloro-5-((4-(7-methylquinolin-6-yl)piperidin-1-yl)sulfonyl)imidazo[2,1-b]thiazole]
The IC50 of the first is 3.2-fold higher: 1990 nM for the first, 619 nM for the second.

Going from Cc1cc2ncccc2cc1C1CCN(S(=O)(=O)c2cnc3n2CCCC3)CC1 [Compound 450, 7-methyl-6-(1-((5,6,7,8-tetrahydroimidazo[1,2-a]pyridin-3-yl)sulfonyl)piperidin-4-yl)quinoline] to Cc1cc2ccnn2cc1C1CCN(S(=O)(=O)c2cnn(C)c2C)CC1 [Compound 453, 6-(1-((1,5-dimethyl-1H-pyrazol-4-yl)sulfonyl)piperidin-4-yl)-5-methylpyrazolo[1,5-a]pyridine], the IC50 rises from 39 nM to 216 nM (5.5-fold). The first is the more potent here.

Compared with Cc1cc2ccnn2cc1C1CCN(S(=O)(=O)c2cnn(C)c2CC#N)CC1 [Compound 454, 2-(1-methyl-4-((4-(5-methylpyrazolo[1,5-a]pyridin-6-yl)piperidin-1-yl)sulfonyl)-1H-pyrazol-5-yl)acetonitrile], Cn1ncc(S(=O)(=O)N2CCC(c3cn4ncnc4cc3C(F)F)CC2)c1CC#N [Compound 456, 2-(4-((4-(7-(difluoromethyl)-[1,2,4]triazolo[1,5-a]pyridin-6-yl)piperidin-1-yl)sulfonyl)-1-methyl-1H-pyrazol-5-yl)acetonitrile] is lower in IC50: greater than 10000 nM for the first, 414 nM for the second. The second is the more potent here.

First: Cc1c(S(=O)(=O)N2CCC(c3cn4ncnc4cc3C(F)F)CC2)cnn1C [Compound 455, 7-(difluoromethyl)-6-(1-((1,5-dimethyl-1H-pyrazol-4-yl)sulfonyl)piperidin-4-yl)-[1,2,4]triazolo[1,5-a]pyridine]
Second: Cc1cc2ncnn2cc1C1(F)CCN(S(=O)(=O)c2cnn(C)c2CC#N)CC1 [Compound 457, 2-(4-((4-fluoro-4-(7-methyl-[1,2,4]triazolo[1,5-a]pyridin-6-yl)piperidin-1-yl)sulfonyl)-1-methyl-1H-pyrazol-5-yl)acetonitrile]
The IC50 of the first is lower: 63 nM for the first, greater than 10000 nM for the second. The first is the more potent here.

Work on Cc1cc2ncnn2cc1C1(F)CCN(S(=O)(=O)c2cnn3cccnc23)CC1 [Compound 458, 6-(4-fluoro-1-(pyrazolo[1,5-a]pyrimidin-3-ylsulfonyl)piperidin-4-yl)-7-methyl-[1,2,4]triazolo[1,5-a]pyridine] yielded an IC50 of 754 nM.
